The target in this experiment is T1, recombinant human NAMPT (Homo sapiens, UniProt P43490).
T1 construct: His tag (N); made in house; host or cells: E. coli BL21-CodonPlus (DE3)-RIL, pET21a+ vector
Description: HTS / fixed-concentration NAMPT activity screen (fluorometric). The experiment is classed as biochemical. The following applies: 20 μM compound; analogues of the 46 non-fluorescent inhibitors. An excerpt:
Using our previously established high throughput screening (HTS) platform and recombinant human NAMPT[14][15], we performed a HTS on a chemical library containing 30000 small-molecules (Chemdiv, CA, USA). Our HTS targeting NAMPT was developed based on a fluorometric method for NAMPT activity assay by measuring the fluorescence of nicotinamide mononucleotide (NMN) derivative resulting from the NAMPT enzymatic product NMN through simple chemical reactions (Fig. 1A). The 30000 compounds were dissolved with dimethyl sulfoxide (DMSO); most of compounds were soluble at 10 mM stock solution (94.1%), some compounds insoluble at 10 mM were soluble at 2.5 mM stock solution (4.4%), and the remaining compounds insoluble at 2.5 mM (1.5%) were diluted further during HTS experiments (Fig. 1B). To guarantee the quality of screening, S/N ratio, CV and Z’ factors were monitored throughout the screenings, and all three indices met the requirements of HTS (Fig. 1C–E). After a primary screen and a secondary screen of all compounds at 20 μM, 242 compounds were selected as the hits of NAMPT inhibitors (NAMPT activity < 40%), and the hit rate was ~0.8% (Fig. 1F). […] All these 55 compounds were not reported as NAMPT inhibitors previously. Among the 55 compounds, we noted 46 compounds were non-fluorescent and 9 compounds were fluorescent (Fig. 1F). These fluorescent and non-fluorescent compounds were further studied separately.
HTS was performed using our previously reported method. 0.5 μl stock of each compound (1 mM DMSO stock) was transferred to a 96-well PCR plate for screening. In the primary screening, 5 ng NAMPT in 20 μl reaction buffer [0.4 mM phosphoribosylpyrophosphate (PRPP, Sigma), 2 mM ATP, 0.02% BSA, 2 mM DTT, 12 mM MgCl2 and 50 mM Tris-HCl (pH = 7.5)] was added into each well, the plate was incubated at 37 °C for 5 min, then 4.5 μl substrate of NAM was added to initiate the enzyme reaction, resulting in a final concentration of 2% DMSO, 2 μg/ml NAMPT, 0.2 μM NAM and 20 μM compound. After reacting at 37 °C for 15 min, the enzyme reaction was terminated by heating at 95 °C for 1 min and cooling in an ice bath. The product of NMN was detected through the following approach: after adding 10 μl 20% acetophenone in DMSO and 10 μl 2 M KOH into each well, the mixture was vortex-mixed and kept in ice bath for 2 min. Then 45 μl 88% formic acid was added and the mixture was incubated at 37 °C for 10 min. Finally, 85 μl mixtures in each well were transferred into a flat-bottom 96-well black plate (Greiner), and the fluorescence (F) was measured using a Tecan Infinity M200 plate reader (Tecan Group Ltd.) by setting the excitation and emission wavelength to 382 nm and 445 nm respectively. The last row of each 96-well plate includes six wells of background controls and six wells of reference controls. The relative enzyme activity (Activity%) regulated by specific compound was calculated according to equation (1):
F0 was the averaged fluorescence of six background controls, representing zero activity from a simulated enzyme reaction with only NAMPT but no NAM and compound; F100% was the averaged fluorescence of six reference controls, representing 100% activity from intact enzyme reaction without compound perturbation.
Compounds with Activity% less than 40% were considered as inhibitors and subjected to a secondary screen inhibition validation, in which another background control (FC0), a simulated enzyme reaction with NAMPT and compound but no NAM, was introduced to eliminate the direct and/or indirect influence from compound. At this stage, the Activity% was calculated according to equation (2): […]

T1 sequence (P43490 whole entry): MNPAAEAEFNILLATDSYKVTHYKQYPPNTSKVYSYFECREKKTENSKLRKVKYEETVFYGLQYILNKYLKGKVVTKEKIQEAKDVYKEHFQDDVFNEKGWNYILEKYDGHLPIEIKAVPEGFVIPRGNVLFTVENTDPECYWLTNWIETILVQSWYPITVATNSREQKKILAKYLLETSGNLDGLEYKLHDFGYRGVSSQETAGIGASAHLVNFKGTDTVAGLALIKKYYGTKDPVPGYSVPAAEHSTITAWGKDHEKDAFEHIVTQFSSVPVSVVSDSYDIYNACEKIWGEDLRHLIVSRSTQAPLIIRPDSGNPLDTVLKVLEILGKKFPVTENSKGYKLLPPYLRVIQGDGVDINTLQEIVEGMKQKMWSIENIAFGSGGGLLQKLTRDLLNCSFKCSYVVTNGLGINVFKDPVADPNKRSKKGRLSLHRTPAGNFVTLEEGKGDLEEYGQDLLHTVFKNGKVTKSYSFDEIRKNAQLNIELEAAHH

For `Cc1ccc(Cl)cc1NC(=O)CCCn1c(=O)c2cccn2c2cccnc21` [E524-1295], the “NAMPT inhibition activity at 20 μM” value was “No (showed no NAMPT inhibition activity at 20 μM (NAMPT activity ≥40%))”.
For `CCC(C)NC(=O)c1ccc(Cn2c(=O)c3cccn3c3cccnc32)cc1` (stereo not shown) [E524-1568], the “NAMPT inhibition activity at 20 μM” value is on record as “No (showed no NAMPT inhibition activity at 20 μM (NAMPT activity ≥40%))”.
As for `COc1ccc(Cl)cc1NC(=O)CCCn1c(=O)c2cccn2c2cccnc21` [E524-1372], the entry is “No (showed no NAMPT inhibition activity at 20 μM (NAMPT activity ≥40%))”; as for `CN(C)CCNC(=O)c1ccc(Cn2c(=O)c3cccn3c3cccnc32)cc1` [E524-1589], “No (showed no NAMPT inhibition activity at 20 μM (NAMPT activity ≥40%))”; as for `CCOc1ccccc1NC(=O)NCc1noc2ccc(C)cc12` [E569-0079], “No (showed no NAMPT inhibition activity at 20 μM (NAMPT activity ≥40%))”.
Take `Cc1ccc2c(=O)cc(CSc3nnc(-c4ccccc4)n3C)[nH]c2c1C` [G751-0753]: the “NAMPT inhibition activity at 20 μM” value was “No (showed no NAMPT inhibition activity at 20 μM (NAMPT activity ≥40%))”.
As for `COc1cc(OC)c(NC(=O)CCCn2nc(C)c3sc4ccccc4c3c2=O)cc1Cl` [E019-0951], the entry is “No (showed no NAMPT inhibition activity at 20 μM (NAMPT activity ≥40%))”.
To `CC(=O)c1cccc(NC(=O)Cc2noc3ccccc23)c1` [E207-0513] belongs “No (showed no NAMPT inhibition activity at 20 μM (NAMPT activity ≥40%))”; to `Cc1ccc(NC(=O)CCCn2c(=O)c3cccn3c3cccnc32)c(Cl)c1` [E524-1338], “No (showed no NAMPT inhibition activity at 20 μM (NAMPT activity ≥40%))”.
Turning to `COc1ccc(OC)c(CCNC(=O)CCCn2c(=O)c3cccn3c3cccnc32)c1` [E524-1470], the “NAMPT inhibition activity at 20 μM” value is listed as “No (showed no NAMPT inhibition activity at 20 μM (NAMPT activity ≥40%))”.
Turning to `CCOc1ccc(CCNC(=O)c2ccc(Cn3c(=O)c4cccn4c4cccnc43)cc2)cc1` [E524-1767], the “NAMPT inhibition activity at 20 μM” value is listed as “No (showed no NAMPT inhibition activity at 20 μM (NAMPT activity ≥40%))”.
As for `COc1ccc(OC)c(CNC(=O)CCCn2c(=O)c3cccn3c3cccnc32)c1` [C799-0387], the entry is “No (showed no NAMPT inhibition activity at 20 μM (NAMPT activity ≥40%))”; as for `Cc1ccccc1OCc1ccc(-c2nc(C#N)c(NCc3cccnc3)o2)o1` [D301-0303], “No (showed no NAMPT inhibition activity at 20 μM (NAMPT activity ≥40%))”.
As for `Cc1cn2c(=O)cc(COC(=O)c3cccc(NC(=O)C(C)Oc4ccccc4)c3)nc2s1` (stereo not shown) [G357-2118], the “NAMPT inhibition activity at 20 μM” value is reported as “No (showed no NAMPT inhibition activity at 20 μM (NAMPT activity ≥40%))”.
As for `O=C(NCc1ccccc1Cl)c1ccc(Cn2c(=O)c3cccn3c3cccnc32)cc1` [E524-1573], the entry is “Yes”; as for `O=C(NCc1ccc(Cl)cc1)NCc1noc2ccccc12` [E567-0228], “No (showed no NAMPT inhibition activity at 20 μM (NAMPT activity ≥40%))”.
For the compound `Cc1ccc2onc(CNC(=O)Nc3ccccc3C#N)c2c1` [E569-0217], the “NAMPT inhibition activity at 20 μM” value is recorded as “No (showed no NAMPT inhibition activity at 20 μM (NAMPT activity ≥40%))”.
To `COc1ccc(OC)c(CNC(=O)NCc2noc3ccc(C)cc23)c1` [E569-0193] belongs “No (showed no NAMPT inhibition activity at 20 μM (NAMPT activity ≥40%))”; to `Cc1nn(CCCC(=O)Nc2ccccc2C(F)(F)F)c(=O)c2c1sc1ccccc12` [E019-0923], “No (showed no NAMPT inhibition activity at 20 μM (NAMPT activity ≥40%))”.
As for `COc1ccc(CNC(=O)c2ccc(Cn3c(=O)c4cccn4c4cccnc43)cc2)c(OC)c1` [E524-1754], the entry is “No (showed no NAMPT inhibition activity at 20 μM (NAMPT activity ≥40%))”.
Consider `CC(C)OCCCNC(=O)c1ccc(Cn2c(=O)c3cccn3c3cccnc32)cc1` [E524-1673], for which the “NAMPT inhibition activity at 20 μM” value is “No (showed no NAMPT inhibition activity at 20 μM (NAMPT activity ≥40%))”.
`COc1cccc(CNC(=O)CCCn2c(=O)c3cccn3c3cccnc32)c1OC` [E524-1489]: the “NAMPT inhibition activity at 20 μM” value is recorded as “No (showed no NAMPT inhibition activity at 20 μM (NAMPT activity ≥40%))”.
As for `Cc1ccccc1CNC(=O)Cn1c(=O)c2cccn2c2cccnc21` [E524-0298], the entry is “No (showed no NAMPT inhibition activity at 20 μM (NAMPT activity ≥40%))”.
On to `Cc1ccc(OCc2ccc(-c3nc(C#N)c(NCc4cccnc4)o3)o2)cc1` [D301-0100], for which the “NAMPT inhibition activity at 20 μM” value is “No (showed no NAMPT inhibition activity at 20 μM (NAMPT activity ≥40%))”.
Consider `O=C(Cn1c(=O)c2cccn2c2cccnc21)NCc1cccc(F)c1` [E524-0302], for which the “NAMPT inhibition activity at 20 μM” value was “No (showed no NAMPT inhibition activity at 20 μM (NAMPT activity ≥40%))”.
`Cc1ccccc1CNC(=O)CCCn1nc(C)c2sc3ccccc3c2c1=O` [E019-1139]: the “NAMPT inhibition activity at 20 μM” value is “No (showed no NAMPT inhibition activity at 20 μM (NAMPT activity ≥40%))”.
With `Cc1c(Cl)cccc1NC(=O)Cn1nc(C)c2sc3ccccc3c2c1=O` [E019-0120], the “NAMPT inhibition activity at 20 μM” value is “No (showed no NAMPT inhibition activity at 20 μM (NAMPT activity ≥40%))”.
With `COc1ccc(Cl)cc1NC(=O)NCc1noc2ccccc12` [E567-0019], the “NAMPT inhibition activity at 20 μM” value is listed as “No (showed no NAMPT inhibition activity at 20 μM (NAMPT activity ≥40%))”.
To `CC(C)NC(=O)c1ccc(Cn2c(=O)c3cccn3c3cccnc32)cc1` [E524-1612] belongs “No (showed no NAMPT inhibition activity at 20 μM (NAMPT activity ≥40%))”; to `CCOc1ccc(CCNC(=O)CCCn2c(=O)c3cccn3c3cccnc32)cc1` [E524-1469], “No (showed no NAMPT inhibition activity at 20 μM (NAMPT activity ≥40%))”.
As to `CCOCCCNC(=O)c1ccc(Cn2c(=O)c3cccn3c3cccnc32)cc1` [E524-1662], the “NAMPT inhibition activity at 20 μM” value is on record as “No (showed no NAMPT inhibition activity at 20 μM (NAMPT activity ≥40%))”.
On to `Cc1cc(C)c(NC(=O)C(C)n2nc(C)c3sc4ccccc4c3c2=O)c(C)c1` (stereo not shown) [E019-0435], for which the “NAMPT inhibition activity at 20 μM” value is “No (showed no NAMPT inhibition activity at 20 μM (NAMPT activity ≥40%))”.
Take `CN(C)c1ccc(CNC(=O)c2ccc(Cn3c(=O)c4cccn4c4cccnc43)cc2)cc1` [E524-1758]: the “NAMPT inhibition activity at 20 μM” value is listed as “No (showed no NAMPT inhibition activity at 20 μM (NAMPT activity ≥40%))”.
Take `COc1ccc(CCNC(=O)c2ccc(Cn3c(=O)c4cccn4c4cccnc43)cc2)cc1OC` [E524-1586]: the “NAMPT inhibition activity at 20 μM” value was “No (showed no NAMPT inhibition activity at 20 μM (NAMPT activity ≥40%))”.
With `COc1ccc(Br)cc1CNC(=O)CCCn1c(=O)c2cccn2c2cccnc21` [E524-1499], the “NAMPT inhibition activity at 20 μM” value is “No (showed no NAMPT inhibition activity at 20 μM (NAMPT activity ≥40%))”.
To `O=C(COc1ccc(F)cc1)Nc1ccccc1C(=O)OCc1cc(=O)n2ccsc2n1` [G357-1695] belongs “No (showed no NAMPT inhibition activity at 20 μM (NAMPT activity ≥40%))”.
To `COc1ccc(CNC(=O)Cn2c(=O)c3cccn3c3cccnc32)cc1` [E524-0113] belongs “No (showed no NAMPT inhibition activity at 20 μM (NAMPT activity ≥40%))”; to `O=C(Cn1c(=O)c2cccn2c2cccnc21)NCc1ccccc1F` [E524-0299], “No (showed no NAMPT inhibition activity at 20 μM (NAMPT activity ≥40%))”; to `Cc1cccc(OCc2ccc(-c3nc(C#N)c(NCc4cccnc4)o3)o2)c1` [D301-0252], “No (showed no NAMPT inhibition activity at 20 μM (NAMPT activity ≥40%))”.
Consider `CCCNC(=O)c1ccc(Cn2c(=O)c3cccn3c3cccnc32)cc1` [E524-1613], for which the “NAMPT inhibition activity at 20 μM” value is given as “No (showed no NAMPT inhibition activity at 20 μM (NAMPT activity ≥40%))”.

Source of the values: PMC4521150, “Discovery of Novel Inhibitors and Fluorescent Probe Targeting NAMPT” (Scientific Reports, 2015).
